Assay results from patent US12441690B2, “Benzamide derivative compound, method for preparing same, and pharmaceutical composition for treating or preventing inflammatory disease containing same as active ingredient” (SEOUL NATIONAL UNIVERSITY R&DB FOUNDATION, priority 2017, dated 2025).

Legend:
PDE4B enzyme = PDE4B enzyme (Homo sapiens (Human), UniProt Q07343); assay: PDE4B inhibitory activity, LANCE Ultra cAMP assay; assay type: biochemical; conditions: 50% inhibition from cAMP to 5′AMP
Experimental: In order to evaluate the PDE4B inhibitory activity of the compounds according to the present invention, the following experiment was performed using LANCE Ultra cAMP assay kit (Perkin Elmer, U.S.A).
Particularly, 5 μl of the 3 nM cAMP dissolved reaction buffer was added to each reaction well (LANCE Ultra cAMP assay kit). Then, each example compound dilution solution (2.5 μl) and PDE4B enzyme (0.1 ng/well, BPS Biosciences, San Diego, U.S.A) were added to the well, followed by incubation for 1 hour at 37° C. Next, 5 μl of ULight-anti-cAMP detection reactant supplemented with 5 μl of Eu-cAMP tracer and 1 mM IBMX (LANCE Ultra cAMP assay kit) was added thereto, followed by incubation for 1 hour at 37° C.

[1] = molecular target: PDE4B GFP fusion protein (human PDE4B2A) (Homo sapiens (Human), UniProt Q07343); assay: PDE4B GFP fusion protein-inhibitor assay in HEK-293 cells; assay type: cell-based
Experimental: To evaluate the intracellular enzyme inhibitory activity of the compounds of Examples 1 and 25, PDE4B GFP fusion protein-inhibitor assay was performed using GFP (green fluorescent protein).
The DNA complementary to human PDE4B2A was amplified by PCR using the DNA genome extracted from the human blood sample (QIAamp DNA Blood Mini Kit, Qiagen, Valencia, CA, U.S.A.).
For DNA amplification, 5′-[…]-3′ was used as a forward primer, and 5′-[…]-3′ was used as a reverse primer.
The amplified PDE4B2A cDNA was cloned into pAcGFP1-N1, the mammalian expression mediator, between the EcoR1 and BamH1 restriction enzyme sites, which was transfected into E. coli DH5α cells using chemical transformation reagents (Invitrogen, Carlsbad, CA, U.S.A.).
Plasmids were isolated from the colonies with kanamycin using Plasmid Midi Kit (Qiagen, Valencia, CA, U.S.A.). Then, the plasmid cloned with PDE4B2A gene was transfected into HEK-293 cells (Korean Cell Line Bank, Seoul, Korea) using lipofectamine 3000 (Invitrogen).
The transfected cells were cultured in DMEM at 37° C. for 48 hours in a CO2 incubator. […] Upon completion of the culture, the fluorescence emission of HEK-293 cells was measured by confocal microscopy to perform quantitative analysis, and the results are shown in FIGS. 1 and 2.
In addition, the ratio of the surface cover area of GFP to the total cell surface area was measured using MetaMorph software, and the results are shown in FIG. 2.

[2] = tested on: Nc/Nga mice treated with DNCB; assay: Relief of atopic symptoms in Nc/Nga mice treated with DNCB; assay type: in vivo, mouse; conditions: for weight of the spleen: DNCB-treated mice; for lymph node size / number of scratches for 20 minutes / symptoms of hypertrophy and edema of incised dorsal skin / weight of the lymph node: compared to mouse treated with DNCB alone; for skin thickness: incised dorsal skin, DNCB alone 1.19 mm, control 0.45 mm; for side effects: mouse treated with the compound alone, applied on dorsal skin; for incidence of inflammation on the dorsal skin: treated together with DNCB, compared to DNCB only, last day of experiment; for dermatitis score at week 5: treated with DNCB, total of 12 points
Experimental: In order to confirm the atopic dermatitis alleviation effect of the compounds of Examples 1 and 25 according to the present invention, atopic symptom relief experiments were performed on the mice with atopic symptoms.
DNCB (dinitrochlorobenzene) was applied on the back of Nc/Nga mouse to induce atopic dermatitis-like symptoms.
As a carrier for treating DNCB, acetone-olive oil in which acetone and olive oil were mixed (3:1) was used. Six groups of mice were prepared as follows: mice treated with the carrier alone; mice treated with Example 1 compound, mice treated with Example 25 compound, mice treated with DNCB alone, mice treated with DNCB and Example 1 compound, and mice treated with DNCB and Example 25 compound.
Particularly, 2 days before the start of the experiment, hair of the dorsal skin of the mouse was removed. After 2 days after removing the hair, 150 μl of 1% DNCB was dissolved in a carrier and applied on the dorsal skin of the mouse. Four days later, the same solution was applied on the dorsal skin of the mouse once again. Then, 150 μl of 0.2% DNCB solution was applied on the dorsal skin of the mouse once a week for 5 weeks. The experimental group mice were applied with the compounds of Example 1 and Example 25 daily from the 6th day of the experiment to the end of the experiment.
The degree of atopic symptoms in the experimental group and control group mice was evaluated and quantified once a week for a period of 5 weeks. Scores were given as follows for the four items of erythema/bleeding, edema, threshing/corrosion, scaling/dryness, respectively: 1 (none); 2 (moderate); and 3 (serious). Each experimental group and control group was scored based on a total of 12 points.
In order to confirm the effect of the compounds according to the present invention on relieving itching, the number of scratches for 20 minutes of each mouse of the experimental group and control group was measured, and the results are shown graphically in FIG. 5(a), (b).
After completing the experiment, the physical changes were observed by incising the dorsal skin of the experimental group and control group mice. As a result, hypertrophy and edema were clearly observed in the mouse treated with DNCB alone.
In addition, to confirm the alleviating effect of the compounds according to the present invention on skin hypertrophy, the incised skin thickness was measured, and the results are shown graphically in FIG. 5(b).
In order to confirm the effect of the compounds according to the present invention, the lymph node of each mouse of the experimental group and control group was separated and observed. The lymph node is an interaction site between the antigen and immune cells, and since the size of the lymph node increases during the development of inflammatory symptoms, it is possible to confirm the presence or absence of inflammatory disease depending on the size of the lymph node. The photographs of the separated lymph node of each mouse of the experimental group and control group are shown in FIG. 6(a), and the weight of the lymph node and the spleen of each mouse of the experimental group and control group are shown in FIG. 6(b) and FIG. 6(c).

[3] = tested on: dorsal skin tissue of Nc/Nga mice treated with DNCB; assay: Observation of mouse dorsal skin tissue (H&E, toluidine blue, CD4+ cell staining); assay type: in vivo; conditions: for expression of IFN-γ in CD4+ cells / expression of IL-4 of CD4+ cells / expression of IL-5 of CD4+ cells / expression of IL-17 of CD4+ cells: applied on the skin; for expression of IL-4 of CD4+ cells / expression of IL-5 of CD4+ cells / expression of IL-17 of CD4+ cells: compared to DNCB alone; for number of mast cells in skin tissue (toluidine blue): compared to mouse treated with DNCB alone; for skin structure of tissue sections (H&E): groups treated with the compound without DNCB; for epidermal hyperplasia and keratosis (H&E) / inflammatory cells in skin sections (H&E): treated with DNCB
Experimental: The dorsal skin samples were obtained from the experimental group and control group mice. The samples were fixed using 10% neutral buffered formalin and then embedded in paraffin. 4 μm thin tissue sections were prepared and stained with H & E (hematoxylin & eosin). […] In addition, the sections were stained with toluidine blue to investigate mast cell infiltration. Then, the stained tissue sections were photographed using NikonAX70 optical microscope (Tokyo, Japan).
In addition, the mouse tissue CD4+ cells were stained to confirm the expressions of IL-17, IFN-γ, IL-4 and IL-5.

[4] = tested on: IL-4, IL-5, IFN-γ, IL-17 and IgE in mouse skin tissues; assay: Sandwich ELISA with mouse skin tissues; assay type: in vivo; conditions: for expression of IL-4 (ELISA) / expression of IL-5 (ELISA) / expression of IL-17 (ELISA): DNCB; for expression of IgE (ELISA): treated with DNCB
Experimental: To confirm the effect of the compounds according to the present invention on the synthesis of DNCB-induced IgE and inflammatory mediators, ELISA (Enzyme-Linked ImmunoSorbent Assay) was performed with the control group and the experimental group treated with the compounds of Example 1 and Example 25.
FIG. 11(a)-FIG. 11(e) are graphs showing the expression levels of IL-4, IL-5, IFN-γ, IL-17 and IgE, respectively, shown when performing sandwich ELISA (Enzyme-Linked ImmunoSorbent Assay) with the mouse skin tissues.

[5] = tested on: TNF-α secretion in human PBMC cells; assay: Inhibition of TNF-α synthesis in LPS-stimulated human PBMC cells; assay type: cell-based; conditions: human PBMC cells stimulated using bacterial LPS
Experimental: In addition, to evaluate the inhibitory effect of the compounds of Example 1 and Example 25 on the synthesis of TNF-α, in vitro assay was performed. Particularly, after culturing human PBMC cells, the secretion of TNF-α was stimulated using bacterial LPS, and the expression level of TNF-α was measured.

[6] = 24 hours, compared to control group not-treated with any inhibitor
[7] = at the concentrations of 100 nM and 500 nM

PDE4B GFP fusion protein (human PDE4B2A), sequence (Q07343 other isoform, or with tags, fused parts or gaps): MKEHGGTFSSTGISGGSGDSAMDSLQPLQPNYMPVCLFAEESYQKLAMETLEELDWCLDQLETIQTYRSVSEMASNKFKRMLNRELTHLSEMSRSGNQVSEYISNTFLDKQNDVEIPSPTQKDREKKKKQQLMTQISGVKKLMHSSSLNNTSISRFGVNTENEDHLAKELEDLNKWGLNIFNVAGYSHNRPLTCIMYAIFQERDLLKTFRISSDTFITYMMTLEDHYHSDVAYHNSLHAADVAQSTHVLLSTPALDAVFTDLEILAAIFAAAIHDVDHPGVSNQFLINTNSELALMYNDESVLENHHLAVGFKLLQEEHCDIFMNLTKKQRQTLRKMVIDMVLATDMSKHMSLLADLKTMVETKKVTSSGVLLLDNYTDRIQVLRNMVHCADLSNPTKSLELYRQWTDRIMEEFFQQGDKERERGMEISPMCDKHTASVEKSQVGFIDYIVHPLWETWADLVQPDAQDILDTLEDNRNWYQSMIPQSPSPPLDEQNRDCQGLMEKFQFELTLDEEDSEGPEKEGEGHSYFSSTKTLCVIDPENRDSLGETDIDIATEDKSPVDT
PDE4B enzyme, sequence (Q07343 whole entry): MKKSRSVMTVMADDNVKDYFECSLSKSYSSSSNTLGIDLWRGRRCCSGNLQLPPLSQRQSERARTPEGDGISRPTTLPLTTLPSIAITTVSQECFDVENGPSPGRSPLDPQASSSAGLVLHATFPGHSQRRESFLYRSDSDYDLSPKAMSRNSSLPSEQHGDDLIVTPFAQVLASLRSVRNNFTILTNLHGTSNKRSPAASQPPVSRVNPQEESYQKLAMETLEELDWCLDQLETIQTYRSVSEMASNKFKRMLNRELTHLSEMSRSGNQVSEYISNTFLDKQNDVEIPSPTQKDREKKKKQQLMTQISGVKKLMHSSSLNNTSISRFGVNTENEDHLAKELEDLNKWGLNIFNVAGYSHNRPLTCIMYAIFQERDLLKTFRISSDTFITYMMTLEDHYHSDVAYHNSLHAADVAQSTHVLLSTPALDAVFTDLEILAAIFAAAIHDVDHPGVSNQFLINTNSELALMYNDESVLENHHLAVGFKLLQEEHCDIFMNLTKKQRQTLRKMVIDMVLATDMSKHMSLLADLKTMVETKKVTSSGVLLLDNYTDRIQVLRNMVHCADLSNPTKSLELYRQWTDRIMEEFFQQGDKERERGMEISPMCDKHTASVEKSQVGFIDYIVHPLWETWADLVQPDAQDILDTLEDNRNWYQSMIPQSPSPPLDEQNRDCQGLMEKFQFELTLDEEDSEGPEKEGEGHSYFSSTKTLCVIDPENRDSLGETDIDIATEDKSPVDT

## COc1ccc(NC(=O)c2cnc(SC)nc2N2CCOCC2)cc1OC [Example 1, N-(3,4-dimethoxyphenyl)-2-(methylthio)-4-morpholinopyrimidine-5-carboxamide]
PDE4B enzyme
  IC50: 31 nM
[1]; [6]
  fluorescence intensity of PDE4B GFP fusion protein: relatively weak
[1]; [7]
  fluorescence intensity of PDE4B GFP fusion protein: significantly reduced
[2]
  weight of the spleen: significantly reduced
  lymph node size: significantly reduced
  number of scratches for 20 minutes: significantly less
  symptoms of hypertrophy and edema of incised dorsal skin: no symptoms of hypertrophy and edema
  weight of the lymph node: significantly reduced
  skin thickness: 0.83 mm
  side effects: no side effects were observed
  incidence of inflammation on the dorsal skin: significantly reduced
  dermatitis score at week 5: less than 3
[3]
  expression of IFN-γ in CD4+ cells: activated
  expression of IL-4 of CD4+ cells: more suppressed
  expression of IL-5 of CD4+ cells: more suppressed
  expression of IL-17 of CD4+ cells: more suppressed
  number of mast cells in skin tissue (toluidine blue): significantly reduced
  skin structure of tissue sections (H&E): normal skin structure
  epidermal hyperplasia and keratosis (H&E): significantly reduced
  inflammatory cells in skin sections (H&E): almost no inflammatory cells
[4]
  expression of IFN-γ (ELISA): high
  expression of IL-4 (ELISA): significantly suppressed
  expression of IL-5 (ELISA): significantly suppressed
  expression of IL-17 (ELISA): significantly suppressed
  expression of IgE (ELISA): significantly reduced
[5]
  synthesis of TNF-α: effectively inhibited

## COc1ccc(-c2nc(C(F)(F)F)ncc2C(=O)Nc2ccncc2)cc1OC [Example 25, 4-(3,4-dimethoxyphenyl)-N-(pyridine-4-yl)-2-(trifluoromethyl)pyrimidine-5-carboxamide]
PDE4B enzyme
  IC50: 15 nM
[1]; [6]
  fluorescence intensity of PDE4B GFP fusion protein: relatively weak
[1]; [7]
  fluorescence intensity of PDE4B GFP fusion protein: significantly reduced
[2]
  weight of the spleen: significantly reduced
  lymph node size: significantly reduced
  number of scratches for 20 minutes: significantly less
  symptoms of hypertrophy and edema of incised dorsal skin: no symptoms of hypertrophy and edema
  weight of the lymph node: significantly reduced
  skin thickness: 0.71 mm
  side effects: no side effects were observed
  incidence of inflammation on the dorsal skin: significantly reduced
  dermatitis score at week 5: less than 3
[3]
  expression of IFN-γ in CD4+ cells: activated
  expression of IL-4 of CD4+ cells: more suppressed
  expression of IL-5 of CD4+ cells: more suppressed
  expression of IL-17 of CD4+ cells: more suppressed
  number of mast cells in skin tissue (toluidine blue): significantly reduced
  skin structure of tissue sections (H&E): normal skin structure
  epidermal hyperplasia and keratosis (H&E): significantly reduced
  inflammatory cells in skin sections (H&E): almost no inflammatory cells
[4]
  expression of IFN-γ (ELISA): high
  expression of IL-4 (ELISA): significantly suppressed
  expression of IL-5 (ELISA): significantly suppressed
  expression of IL-17 (ELISA): significantly suppressed
  expression of IgE (ELISA): significantly reduced
[5]
  synthesis of TNF-α: effectively inhibited
